Values of other authors, collected in patent US11648199B2 (AI Therapeutics, Inc, priority 2014, dated 2023).

Columns and labels:
[1] = cancer patients administered temsirolimus or everolimus; cited from earlier work
[2] = clinical use; cited from earlier work

| SMILES | patients who may experience mild grade pulmonary toxicity [1] [%] | lung toxicity [2] |
| --- | --- | --- |
| CO[C@H]1C[C@@H]2CC[C@@H](C)[C@@](O)(O2)C(=O)C(=O)N2CCCC[C@H]2C(=O)O[C@H]([C@H](C)C[C@@H]2CC[C@@H](OCCO)[C@H](OC)C2)CC(=O)[C@H](C)/C=C(\C)[C@@H](O)[C@@H](OC)C(=O)[C@H](C)C[C@H](C)/C=C/C=C/C=C/1C [everolimus] | 10 |  |
| C=CC[C@@H]1/C=C(\C)C[C@H](C)C[C@H](OC)[C@H]2O[C@@](O)(C(=O)C(=O)N3CCCC[C@H]3C(=O)O[C@H](/C(C)=C/[C@@H]3CC[C@@H](O)[C@H](OC)C3)[C@H](C)[C@@H](O)CC1=O)[C@H](C)C[C@@H]2OC [tacrolimus] |  | did not show lung toxicity |
| CO[C@H]1C[C@@H]2CC[C@@H](C)[C@@](O)(O2)C(=O)C(=O)N2CCCC[C@H]2C(=O)O[C@H]([C@H](C)C[C@@H]2CC[C@@H](OC(=O)C(C)(CO)CO)[C@H](OC)C2)CC(=O)[C@H](C)/C=C(\C)[C@@H](O)[C@@H](OC)C(=O)[C@H](C)C[C@H](C)/C=C/C=C/C=C/1C [temsirolimus] | 10 |  |
